We go through 30 compounds from patent US12319672B2, “Alpha-D-galactopyranoside derivatives” (Idorsia Pharmaceuticals Ltd, priority 2019, dated 2025).

Some results are limits rather than exact numbers.

The target in one assay is human Gal-3 (hGal-3) (Homo sapiens (Human), UniProt P17931). Description: Competitive binding assay: binding of biotinylated hGal-3 to microplate-adsorbed asialofetuin (ASF). To be noted: Activity on hGal-3; mean values of several measurements. In a few lines:
(§1)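 Biotin-hGal-3/hGal-1 300-1000 ng/mL + cpd (DMSO dilutions) on ASF-coated plate, 3 h 4° C; wash; SA-HRP 80 ng/mL 1 h 4° C; wash; ABTS. IC50 = mean of several runs. hGal-1 preferably Cys→Ser (all six) mutant.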

A further assay has as its target human Gal-1 (hGal-1). Description: Competitive binding assay: binding of biotinylated hGal-1 to microplate-adsorbed asialofetuin (ASF). To be noted: Activities on hGal-1; mean values of several measurements. Put shortly: as §1

Chain of human Gal-1 (hGal-1) (P09382 2-135 limits assumed): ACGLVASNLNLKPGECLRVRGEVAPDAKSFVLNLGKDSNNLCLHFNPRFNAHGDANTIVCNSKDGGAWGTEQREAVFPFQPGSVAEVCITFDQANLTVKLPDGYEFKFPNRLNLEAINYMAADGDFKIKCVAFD
Chain of human Gal-3 (hGal-3) (P17931 whole entry): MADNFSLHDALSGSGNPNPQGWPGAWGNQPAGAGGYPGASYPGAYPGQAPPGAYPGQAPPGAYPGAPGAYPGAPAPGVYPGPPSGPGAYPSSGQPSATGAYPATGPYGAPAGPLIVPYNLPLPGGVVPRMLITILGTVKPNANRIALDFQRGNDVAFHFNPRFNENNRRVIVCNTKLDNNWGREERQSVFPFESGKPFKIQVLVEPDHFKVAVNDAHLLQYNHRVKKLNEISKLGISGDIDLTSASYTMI

As usually defined, the IC50 is the concentration that inhibits the measured activity by half. High values mean a need for much substance, low ones inhibition by little substance. Regarding `CO[C@@H]1[C@@H](n2cc(-c3cccc(F)c3)nn2)[C@@H](O)[C@@H](CO)O[C@@H]1Cc1cn(C2CCN(C(=O)OCc3ccccc3)CC2)nn1` [Example 4.35, benzyl 4-(4-(((2R,3R,4S,5R,6R)-4-(4-(3-fluorophenyl)-1H-1,2,3-triazol-1-yl)-5-hydroxy-6-(hydroxymethyl)-3-methoxytetrahydro-2H-pyran-2-yl)methyl)-1H-1,2,3-triazol-1-yl)piperidine-1-carboxylate], the half-maximal inhibitory concentration (IC50) came out at 40 nM on human Gal-3 (hGal-3) and 150 nM at human Gal-1 (hGal-1).
On the same counts, the results for `CO[C@@H]1[C@@H](n2cc(-c3ccc(C)c(F)c3F)nn2)[C@@H](O)[C@@H](CO)O[C@@H]1Cc1cc(C2(C)CC2)no1` [Ex 1.255] are 32 nM and 2060 nM.
On the same counts, the results for `CO[C@@H]1[C@@H](n2cc(-c3ccc(C)c(F)c3F)nn2)[C@@H](O)[C@@H](CO)O[C@@H]1Cc1cc(C2(O)CCC2)on1` [Ex 1.241] are 79 nM and 2580 nM.
On the same counts, the results for `CO[C@@H]1[C@@H](n2cc(-c3ccc(F)c(F)c3F)nn2)[C@@H](O)[C@@H](CO)O[C@@H]1Cc1cc(C2CCCCC2)on1` [Ex 1.175] are 310 nM and 4760 nM.
In the case of `CO[C@@H]1[C@@H](n2cc(-c3ccccc3)nn2)[C@@H](O)[C@@H](CO)O[C@@H]1CC1CC(C2CCN(C(=O)OC(C)(C)C)CC2)=NO1` (stereo partly drawn) [Ex 1.310], the figures for the IC50 on human Gal-3 (hGal-3) and at human Gal-1 (hGal-1) were 3620 nM and 480 nM, respectively.
On the same counts, the results for `CO[C@@H]1[C@@H](n2cc(-c3cc(F)c(F)c(F)c3)nn2)[C@@H](O)[C@@H](CO)O[C@@H]1Cc1cc(C2(C(F)F)CC2)no1` [Ex 1.214] are 130 nM and 920 nM.
On the same counts, the results for `CO[C@@H]1[C@@H](n2cc(-c3ccc(F)c(F)c3F)nn2)[C@@H](O)[C@@H](CO)O[C@@H]1CC1CC(C2CCN(C(=O)OC(C)(C)C)CC2)=NO1` (stereo partly drawn) [Ex 1.143] are 100 nM and 190 nM.
For `CO[C@@H]1[C@@H](n2cc(-c3ccc(C)c(F)c3F)nn2)[C@@H](O)[C@@H](CO)O[C@@H]1Cc1cc(-c2ccc(F)c(F)c2F)on1` [Ex 1.229] the same measures were 530 nM and above 100000 nM.
For the compound `CO[C@@H]1[C@@H](n2cc(-c3cc(F)c(F)c(F)c3)nn2)[C@@H](O)[C@@H](CO)O[C@@H]1CC1CC(C2CCCCC2)=NO1` (stereo partly drawn) [Ex 1.08], the 50% inhibitory concentration (IC50) at human Gal-3 (hGal-3) is 1080 nM; on human Gal-1 (hGal-1) it was 8740 nM.
For `CO[C@@H]1[C@@H](n2cc(-c3ccc(F)c(F)c3F)nn2)[C@@H](O)[C@@H](CO)O[C@@H]1Cc1cc(C2(C)CCOCC2)on1` [Ex 1.269] the same measures were 49 nM and 900 nM.
On the same counts, the results for `OC[C@H]1O[C@H](CC2CC(c3ccc4[nH]ncc4c3)=NO2)[C@H](O)[C@@H](n2cc(-c3cc(F)c(F)c(F)c3)nn2)[C@H]1O` (stereo partly drawn) [Ex 1.34] are 880 nM and 10600 nM.
For `CO[C@@H]1[C@@H](n2cc(-c3ccc(F)c(F)c3F)nn2)[C@@H](O)[C@@H](CO)O[C@@H]1Cc1cc(C(C)(C)C)no1` [Ex 1.250] the same measures were 57 nM and 250 nM.
With `COc1cc(-c2cn([C@H]3[C@@H](O)[C@@H](CO)O[C@H](CC4CC(C5CCN(C(=O)OC(C)(C)C)CC5)=NO4)[C@@H]3O)nn2)ccc1Cl` (stereo partly drawn) [Ex 1.110], the half-inhibitory concentration (IC50) at human Gal-3 (hGal-3) amounted to 250 nM; at human Gal-1 (hGal-1), 2240 nM.
For `CO[C@@H]1[C@@H](n2cc(-c3ccc(C)c(F)c3F)nn2)[C@@H](O)[C@@H](CO)O[C@@H]1Cc1cc(C(C)(C)CO)no1` [Ex 1.257] the same measures were 44 nM and 1780 nM.
For `Cc1ccc(-c2cn([C@H]3[C@@H](O)[C@@H](CO)O[C@H](Cc4cc(C(C)(C)CO)no4)[C@@H]3O)nn2)c(F)c1F` [Ex 1.334] the same measures were 24 nM and 3310 nM.
For `Cc1ccc(-c2cn([C@H]3[C@@H](O)[C@@H](CO)O[C@H](Cc4cc(C(C)(C)C)no4)[C@@H]3OCc3nccs3)nn2)c(F)c1F` [Example 2.53, (2R,3R,4S,5R,6R)-6-((3-(tert-butyl)isoxazol-5-yl)methyl)-4-(4-(2,3-difluoro-4-methylphenyl)-1H-1,2,3-triazol-1-yl)-2-(hydroxymethyl)-5-(thiazol-2-ylmethoxy)tetrahydro-2H-pyran-3-ol] the same measures were 53 nM and 1050 nM.
Turning to `CN=[S@@](=O)(C(C)C)N1CCC(c2cc(C[C@H]3O[C@H](CO)[C@H](O)[C@H](n4cc(-c5cc(F)c(F)c(F)c5)nn4)[C@H]3OC)no2)CC1` [Ex 1.138], the figures for the half-inhibitory concentration (IC50) on human Gal-3 (hGal-3) and at human Gal-1 (hGal-1) were 130 nM and 15300 nM, respectively.
On the same counts, the results for `CCCC(=O)N1CCC(c2cc(C[C@H]3O[C@H](CO)[C@H](O)[C@H](n4cc(-c5cc(F)c(F)c(F)c5)nn4)[C@H]3OC)no2)CC1` [Example 3.35, 1-(4-(3-(((2R,3R,4S,5R,6R)-5-hydroxy-6-(hydroxymethyl)-3-methoxy-4-(4-(3,4,5-trifluorophenyl)-1H-1,2,3-triazol-1-yl)tetrahydro-2H-pyran-2-yl)methyl)isoxazol-5-yl)piperidin-1-yl)butan-1-one] are 48 nM and 930 nM.
`CO[C@@H]1[C@@H](n2cc(-c3ccc(Cl)c(F)c3F)nn2)[C@@H](O)[C@@H](CO)O[C@@H]1CC1CC(C2CCN(C(=O)OC(C)(C)C)CC2)=NO1` (stereo partly drawn) [Ex 1.140]: the half-maximal inhibitory concentration (IC50) on human Gal-3 (hGal-3) was determined as 49 nM; on human Gal-1 (hGal-1), 690 nM.
Regarding `COc1cc(C2=NOC(C[C@H]3O[C@H](CO)[C@H](O)[C@H](n4cc(-c5cc(F)c(F)c(F)c5)nn4)[C@H]3O)C2)ccn1` (stereo partly drawn) [Ex 1.24], the IC50 at human Gal-3 (hGal-3) worked out at 800 nM; on human Gal-1 (hGal-1) it was 13300 nM.
On the same counts, the results for `CN=S1(=O)CCC(n2cc(C[C@H]3O[C@H](CO)[C@H](O)[C@H](n4cc(-c5cc(F)c(F)c(F)c5)nn4)[C@H]3OC)nn2)CC1` (stereo partly drawn) [Example 4.18, 4-(4-(((2R,3R,4S,5R,6R)-5-hydroxy-6-(hydroxymethyl)-3-methoxy-4-(4-(3,4,5-trifluorophenyl)-1H-1,2,3-triazol-1-yl)tetrahydro-2H-pyran-2-yl)methyl)-1H-1,2,3-triazol-1-yl)-1-(methylimino)hexahydro-1l6-thiopyran 1-oxide] are 57 nM and 240 nM.
For `CO[C@@H]1[C@@H](n2cc(-c3ccc(C)c(F)c3F)nn2)[C@@H](O)[C@@H](CO)O[C@@H]1Cc1cc(C(C)(C)CNC(=O)OC(C)(C)C)no1` [Ex 1.331] the same measures were 58 nM and 1990 nM.
On the same counts, the results for `CO[C@@H]1[C@@H](n2cc(-c3cc(F)c(F)c(F)c3)nn2)[C@@H](O)[C@@H](CO)O[C@@H]1CN1CN(C2CCN(C(C)=O)CC2)CC1=O` [Example 6.07, 1-(1-acetylpiperidin-4-yl)-3-(((2R,3R,4S,5R,6R)-5-hydroxy-6-(hydroxymethyl)-3-methoxy-4-(4-(3,4,5-trifluorophenyl)-1H-1,2,3-triazol-1-yl)tetrahydro-2H-pyran-2-yl)methyl)imidazolidin-4-one] are 150 nM and 910 nM.
In the case of `CCC(=O)O[C@@H]1[C@@H](n2cc(-c3cc(F)c(F)c(F)c3)nn2)[C@@H](O)[C@@H](CO)O[C@@H]1Cc1cc(C2CCNCC2)on1` [Example 2.16, (2R,3R,4S,5R,6R)-5-hydroxy-6-(hydroxymethyl)-2-((5-(piperidin-4-yl)isoxazol-3-yl)methyl)-4-(4-(3,4,5-trifluorophenyl)-1H-1,2,3-triazol-1-yl)tetrahydro-2H-pyran-3-yl propionate], the half-inhibitory concentration (IC50) was 160 nM on human Gal-3 (hGal-3) and 11600 nM at human Gal-1 (hGal-1).
On to “1-(4-(3-(((2R,3R,4R,5R,6R)-3,5-dihydroxy-6-(hydroxymethyl)-4-(4-(3,4,5-trifluorophenyl)-1H-1,2,3-triazol-1-yl)tetrahydro-2H-pyran-2-yl)methyl)isoxazol-5-yl)piperidin-1-yl)ethan-1-one [Example 3.17]”, for which the figures for the IC50 on human Gal-3 (hGal-3) and on human Gal-1 (hGal-1) were 46 nM and 960 nM, respectively.
For `CO[C@@H]1[C@@H](n2cc(-c3cc(F)c(F)c(F)c3)nn2)[C@@H](O)[C@@H](CO)O[C@@H]1Cc1cc(C2(C)CCOCC2)on1` [Ex 1.268] the same measures were 110 nM and 2490 nM.
As for `CO[C@@H]1[C@@H](n2cc(-c3ccc(Cl)c(F)c3F)nn2)[C@@H](O)[C@@H](CO)O[C@@H]1Cc1cc(C2(C)COC2)no1` [Ex 1.260], the results for the IC50 at human Gal-3 (hGal-3) and on human Gal-1 (hGal-1) were 63 nM and 1410 nM, respectively.
For `CC(C)(C)c1cc(C[C@H]2O[C@H](CO)[C@H](O)[C@H](n3cc(-c4cc(F)c(F)c(F)c4)nn3)[C@H]2OCC(=O)N2CCC(O)CC2)no1` [Example 2.41, 2-(((2R,3R,4S,5R,6R)-2-((5-(tert-butyl)isoxazol-3-yl)methyl)-5-hydroxy-6-(hydroxymethyl)-4-(4-(3,4,5-trifluorophenyl)-1H-1,2,3-triazol-1-yl)tetrahydro-2H-pyran-3-yl)oxy)-1-(4-hydroxypiperidin-1-yl)ethan-1-one] the same measures were 100 nM and 5840 nM.
On to `CO[C@@H]1[C@@H](n2cc(-c3cc(F)c(F)c(F)c3)nn2)[C@@H](O)[C@@H](CO)O[C@@H]1Cc1cn(C2CCN([S+]([O-])C(C)(C)C)CC2)nn1` (stereo partly drawn) [Example 4.19, (2R,3R,4S,5R,6R)-6-((1-(1-(RS-tert-butylsulfinyl)piperidin-4-yl)-1H-1,2,3-triazol-4-yl)methyl)-2-(hydroxymethyl)-5-methoxy-4-(4-(3,4,5-trifluorophenyl)-1H-1,2,3-triazol-1-yl)tetrahydro-2H-pyran-3-ol], for which the values for the concentration for half-maximal inhibition (IC50) at human Gal-3 (hGal-3) and at human Gal-1 (hGal-1) were 34 nM and 1000 nM, respectively.
Consider `CO[C@@H]1[C@@H](n2cc(-c3ccc(Cl)c(F)c3F)nn2)[C@@H](O)[C@@H](CO)O[C@@H]1Cc1cc(C2CCCC2)on1` [Ex 1.245], for which the half-maximal inhibitory concentration (IC50) on human Gal-3 (hGal-3) is 67 nM; on human Gal-1 (hGal-1), 1860 nM.
